Key:
[1] = test system: BRAPP; assay: Example I: postemergence foliar-applied weed control, direct seeded rice weeds, greenhouse; format: in vivo; settings: 20 DAA
From the text: (§1) Seeds or nutlets of the desired test plant species were planted in a soil matrix prepared by mixing a loam or sandy loam soil (e.g., 28.6 percent silt, 18.8 percent clay, and 52.6 percent sand, with a pH of about 5.8 and an organic matter content of about 1.8 percent) and calcareous grit in an 80 to 20 ratio. The soil matrix was contained in plastic pots with a volume of 1 quart and a surface area of 83.6 square centimeters (cm^2). When required to ensure good germination and healthy plants, a fungicide treatment and/or other chemical or physical treatment was applied. The plants were grown for 8-22 days in a greenhouse with an approximate 14 hr photoperiod which was maintained at about 29° C. during the day and 26° C. during the night. Nutrients (Peters Excel® 15-5-15 5-Ca 2-Mg and iron chelate) were applied in the irrigation solution as needed and water was added on a regular basis. Supplemental lighting was provided with overhead metal halide 1000-Watt lamps as necessary. The plants were employed for testing when they reached the first through fourth true leaf stage.
(§2) Treatments consisted of the acid or esters of 4-amino-3-chloro-5-fluoro-6-(4-chloro-2-fluoro-3-methoxy-phenyl)pyridine-2-carboxylic acid (Compound A), each formulated as an SC (suspension concentrate), and various herbicidal components alone and in combination. Forms of compound A were applied on an acid equivalent basis.
(§3) Other herbicidal components were applied on an active ingredient basis and included very long chain fatty acid (VLCFA) synthesis-inhibiting and fatty acid/lipid synthesis-inhibiting herbicides acetochlor (technical grade material), acetochlor+dichlormid formulated as Topnotch®, pretilachlor (technical grade material), butachlor formulated as Butachlor EC, fentrazamide formulated as Fentrazamide EC, thiobencarb formulated as Bolero® 8EC, cafenstrole formulated as Himeadow® WP or Lapost® Flowable, benfuresate formulated as Full Shot®, dimethenamid-P formulated as Outlook®, indanofan (technical grade material), flufenacet formulated as Define® DF, mefenacet (technical grade material), S-metolachlor formulated as Dual® II Magnum, pethoxamid formulated as Successor® 600, and pyroxasulfone (technical grade material).
(§4) Treatment requirements were calculated based upon the rates being tested, the concentration of active ingredient or acid equivalent in the formulation, and a 12 mL application volume at a rate of 187 L/ha.
(§5) For treatments comprised of formulated compounds, measured amounts of compounds were placed individually in 25 mL glass vials and diluted in a volume of 1.25% (v/v) Agri-Dex® crop oil concentrated to obtain 12× stock solutions. […] Application solutions were prepared by adding an appropriate amount of each stock solution (e.g., 1 mL) and diluted to the appropriate final concentrations with the addition of 10 mL of an aqueous mixture of 1.25% (v/v) crop oil concentrate so that the final spray solutions contained 1.25+/−0.05% (v/v) crop oil concentrate.
(§6) For treatments comprised of technical compounds, weighed amounts can be placed individually in 25 mL glass vials and dissolved in a volume of 97:3 v/v acetone/DMSO to obtain 12× stock solutions. […] Application solutions can be prepared by adding an appropriate amount of each stock solution (e.g., 1 mL) and diluted to the appropriate final concentrations with the addition of 10 mL of an aqueous mixture of 1.5% (v/v) crop oil concentrate so that the final spray solutions contain 1.25% (v/v) crop oil concentrate. When technical materials are used, the concentrated stock solutions can be added to the spray solutions so that the final acetone and DMSO concentrations of the application solutions are […], respectively. […]

[2] = test system: ECHOR; assay: Example II: in-water applied weed control, transplanted paddy rice, greenhouse; format: in vivo, Echinochloa oryzoides (Ard.) Fritsch (early watergrass); settings: for Visual Weed Control ECHOR Obs: 19 DAA
Experimental: (§7) Weed seeds or nutlets of the desired test plant species were planted in puddled soil (mud) prepared by mixing a shredded, non-sterilized mineral soil (50.5 percent silt, 25.5 percent clay, and 24 percent sand, with a pH of about 7.6 and an organic matter content of about 2.9 percent) and water at a 1:1 volumetric ratio. The prepared mud was dispensed in 365 mL aliquots into 16-ounce (oz.) non-perforated plastic pots with a surface area of 86.59 square centimeters (cm^2) leaving a headspace of 3 centimeters (cm) in each pot. Mud was allowed to dry overnight prior to planting or transplanting. Rice seeds were planted in Sun Gro MetroMix® 306 planting mixture, which typically has a pH of 6.0 to 6.8 and an organic matter content of about 30 percent, in plastic plug trays. Seedlings at the second or third leaf stage of growth were transplanted into 840 mL of mud contained in 32-oz. non-perforated plastic pots with a surface area of 86.59 cm^2 4 days prior to herbicide application. The paddy was created by filling the headspace of the pots with 2.5 to 3 cm of water. When required to ensure good germination and healthy plants, a fungicide treatment and/or other chemical or physical treatment was applied. The plants were grown for 4-22 days in a greenhouse with an approximate 14 hr photoperiod which was maintained at about 29′C during the day and 26° C. during the night. Nutrients were added as Osmocote® (19:6:12, N:P:K+ minor nutrients) at 2 g per 16-oz. pot and 4 g per 32-oz. pot. Water was added on a regular basis to maintain the paddy flood, and supplemental lighting was provided with overhead metal halide 1000-Watt lamps as necessary. The plants were employed for testing when they reached the first through fourth true leaf stage.
as §2, with “(compound A)” for “(Compound A),”, “concentrate)” for “concentrate),”
(§8) The herbicidal components were applied on an active ingredient basis and included very long chain fatty acid (VLCFA) synthesis-inhibiting and fatty acid/lipid synthesis-inhibiting herbicides acetochlor (technical grade material), acetochlor+dichlormid formulateded as Topnotch®, pretilachlor (technical grade material), butachlor formulated as Butachlor EC, fentrazamide formulated as Fentrazamide EC, thiobencarb formulated as Bolero® 8EC, cafenstrole formulated as Himeadow® WP or Lapost® Flowable, benfuresate formulated as Full Shot®, anilofos (technical grade material), mefenacet (technical grade material), molinate (technical grade material), and thenylchlor (technical grade material).
(§9) Treatment requirements for each compound or herbicidal component were calculated based upon the rates being tested, the concentration of active ingredient or acid equivalent in the formulation, an application volume of 2 mL per component per pot, and an application area of 86.59 cm^2 per pot.
(§10) For formulated compounds, a measured amount was placed in an individual 100 or 200 mL glass vial and was dissolved in a volume of 1.25% (v/v) Agri-Dex® crop oil concentrate to obtain application solutions.
(§11) For technical grade compounds, a weighed amount was placed in an individual 100 to 200 mL glass vial and was dissolved in a volume of acetone to obtain concentrated stock solutions. […] The concentrated stock solutions obtained were diluted with an equivalent volume of an aqueous mixture containing 2.5% (v/v) crop oil concentrate so that the final application solutions contained 1.25% (v/v) crop oil concentrate.
(§12) Applications were made by injecting with a pipetter appropriate amounts of the application solutions, individually and sequentially, into the aqueous layer of the paddy. Control plants were treated in the same manner with the solvent blank. […]

[3] = test system: LEFCH; assay: Example I: postemergence foliar-applied weed control, greenhouse; format: in vivo, Leptochloa chinensis (L.) Nees (Chinese sprangletop); settings: 20 DAA
From the text: as §1, §2, §3, §4, §5, §6

[4] = test system: DIGSA; assay: as above; format: in vivo, Digitaria sanguinalis (L.) Scop. (large crabgrass); settings: 20 DAA
From the text: as §1, §2, §3, §4, §5, §6

[5] = test system: ECHCG; assay: as above; format: in vivo, Echinochloa crus-galli (L.) Beauv. (barnyardgrass); settings: 20 DAA
From the text: as §1, §2, §3, §4, §5, §6

[6] = test system: ECHCO; assay: as above; format: in vivo, Echinochloa colona (L.) Link (junglerice); settings: 20 DAA
From the text: as §1, §2, §3, §4, §5, §6

[7] = test system: FIMMI; assay: Example II: in-water applied weed control, transplanted paddy rice, greenhouse; format: in vivo, Fimbristylis miliacea (L.) Vahl (globe fringerush); settings: 19 DAA
Experimental: as §7
as §2, with “(compound A)” for “(Compound A),”, “concentrate)” for “concentrate),”
as §8, §9, §10, §11, §12

[8] = test system: ECHCG; assay: as above; format: in vivo, Echinochloa crus-galli (L.) Beauv. (barnyardgrass); settings: 100 gai/ha, 19 DAA
Experimental: as §7
as §2, with “(compound A)” for “(Compound A),”, “concentrate)” for “concentrate),”
as §8, §9, §10, §11, §12

[9] = test system: CYPRO; assay: as above; format: in vivo, Cyperus rotundus L. (purple nutsedge); settings: 19 DAA
Experimental: as §7
as §2, with “(compound A)” for “(Compound A),”, “concentrate)” for “concentrate),”
as §8, §9, §10, §11, §12

## CCN(C(=O)n1nnn(-c2ccccc2Cl)c1=O)C1CCCCC1 [Fentrazamide, 4-(2-chlorophenyl)-N-cyclohexyl-N-ethyl-4,5-dihydro-5-oxo-1H-tetrazole-1-carboxamide]
[1]; 16.88 gai/ha
  Visual Weed Control Obs: 0%
[1]; 33.75 gai/ha
  Visual Weed Control Obs: 0%
[1]; 67.5 gai/ha
  Visual Weed Control Obs: 55%
[2]; 50 gai/ha
  Visual Weed Control (%) - 21 DAA ECHOR Obs: 50%
[3]; 33.75 gai/ha
  Visual Weed Control Obs: 0%
[3]; 67.5 gai/ha
  Visual Weed Control Obs: 0%
[4]; 33.75 gai/ha
  Visual Weed Control Obs: 0%
[4]; 67.5 gai/ha
  Visual Weed Control Obs: 30%
[5]; 16.88 gai/ha
  Visual Weed Control Obs: 0%
[5]; 33.75 gai/ha
  Visual Weed Control Obs: 0%
[5]; 67.5 gai/ha
  Visual Weed Control Obs: 20%
[5]; 75 gai/ha
  Visual Weed Control Obs: 0%
[5]; 150 gai/ha
  Visual Weed Control Obs: 5%
[5]; 300 gai/ha
  Visual Weed Control Obs: 13%
[6]; 16.88 gai/ha
  Visual Weed Control Obs: 0%
[6]; 33.75 gai/ha
  Visual Weed Control Obs: 15%
[6]; 67.5 gai/ha
  Visual Weed Control Obs: 10%

## S-[2-[(4-chlorophenyl)(1-methylethyl)amino]-2-oxoethyl]O,O-dimethyl phosphorodithioate [Anilofos]
[2]; 100 gai/ha
  Visual Weed Control ECHOR Obs: 40%
[2]; 200 gai/ha
  Visual Weed Control ECHOR Obs: 80%
[7]; 100 gai/ha
  Visual Weed Control FIMMI Obs: 0%
[7]; 200 gai/ha
  Visual Weed Control FIMMI Obs: 0%
[7]; 400 gai/ha
  Visual Weed Control FIMMI Obs: 10%
[8]
  Visual Weed Control ECHCG Obs: 20%
[9]; 100 gai/ha
  Visual Weed Control CYPRO Obs: 0%
[9]; 200 gai/ha
  Visual Weed Control CYPRO Obs: 0%
[9]; 400 gai/ha
  Visual Weed Control CYPRO Obs: 0%
